Each structure is given as a SMILES string.

For orientation: IC50 means the concentration at which inhibition is half-maximal.

Assay [1] concerns the target Terminally biotinylated beta-amyloid (Aβ42) (Homo sapiens, UniProt P05067). As to the kind of experiment: Aβ42 biotinylated (biotin-AB) oligomerization assay, NeutrAvidin capture ELISA. The settings on record: approximate value; 1 hr oligomerization at room temperature; read-out: IC50 Aβ 42-bio. Format: biochemical. A digest of the protocol: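 Biotin-Aβ42, pretreated with HFIP/TFA to remove seeds, oligomerized 1 h at room temperature with compound in 20 mM sodium phosphate pH 7.5, 150 mM NaCl (DMSO up to 1%). Oligomers captured on NeutrAvidin plates, detected with streptavidin-HRP/TMB at 450 nm; IC50 approximate, in µM.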

Another assay has as its target Aβ40 (Homo sapiens, UniProt P05067). Kind of assay: ThT Aβ aggregation assay (kinetic Thioflavin T fluorescence). The assay is classed as biochemical. The settings on record: 20 μM Aβ, DMSO control at 80 hr = 0% inhibition, number in parenthesis = compound ID 1027 in that experiment; for inhibition at 5 µM: 80 h, read-out: % inhib Thioflavin T Aβ 40 (5 μm); for inhibition at 10 µM: read-out: % inhib Thioflavin T Aβ 40 10 μM. As to the method:
Preparation of Aβ40 Stock Solutions
Aβ40 (1.0 mg) was pre-treated in a 1.5 mL microfuge tube with HFIP (1 mL) and sonicated for 20 min to disassemble any pre-formed Aβ aggregates. The HFIP was removed with a stream of argon and the Aβ dissolved in Tris base (5.8 mL, 20 mM, pH ˜10). The pH was adjusted to 7.4 with concentrated HCl (˜10 μL) and the solution filtered using a syringe filter (0.2 μm) before being used.
The kinetic ThT assay for Aβ aggregation is similar to that of Chalifour et al (Chalifour et al, 2003, J. Biol. Chem. 278:34874-81). Briefly, pre-treated Aβ40 or Aβ42 (40 μM in 20 mM Tris, pH 7.4) was diluted with an equal volume of 8 μM Thioflavin T (ThT) in Tris (20 mM, pH 7.4, 300 mM NaCl). Aliquots of Aβ/ThT (200 μL) were added to wells of a black polystyrene 96-well plate, followed by 2 μL of a compound in DMSO (variable concentration), or DMSO alone (controls). Incubations were performed in triplicate and were taken to contain 20 μM Aβ, various concentration of compound in 20 mM Tris, pH 7.4, 150 mM NaCl, 1% DMSO. Plates were covered with clear polystyrene lids and incubated at 37° C. in a Tecan Genios microplate reader.
Analysis of ThT and ThS Aggregation Assays
Fluorescence readings (λex=450 nm, λem=480 nm) were taken every 15 min., after first shaking at high intensity for 15 s and allowing to settle for 10 s before each reading. Active compounds attenuated the increase in fluorescence over time that occurred in controls. In FIGS. 1-7, the time this procedure was performed extended to 80 hours (rightmost part of X-axis), at which point fluorescence increase generally reached an asymptote. Applying a definition of DMSO control at 80 hr as 100% aggregation (0% inhibition) and DMSO control at 0 hr as 0% aggregation (100% inhibition), a % inhibition score where higher is better can be calculated for a given concentration of compound. By repeating this procedure over several concentrations, a […] (IC50) can be measured, as is given in the table below for some compounds.

[2] abbreviates: compound 5 μm (so in the source).

Aβ40, sequence (P05067 672-711, species assumed): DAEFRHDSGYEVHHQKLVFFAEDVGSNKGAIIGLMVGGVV
Terminally biotinylated beta-amyloid (Aβ42), sequence (P05067 672-713, species assumed): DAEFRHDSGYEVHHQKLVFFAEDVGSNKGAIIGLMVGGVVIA

Take `OC(c1cc(-c2cc(N3CC(CN4CCCC4)C3)c3nonc3c2)cs1)C(F)(F)F` (stereo not shown) [compound 1537]: the IC50 in assay [1] was found to be 3.5 µM. Further, at Aβ40 (compound 10 μM), the “% inhib Thioflavin T Aβ 40 10 μM” value is recorded as 74%. The “% inhib Thioflavin T Aβ 40 (5 μm)” value at Aβ40 (setting [2]) is 71%.
With `CN(CCCN1CCCC1)c1cc(-c2cccc(C(O)C(F)(F)F)c2)cc2nonc12` (stereo not shown) [compound 1469], in assay [1], the IC50 was 2.4 µM. The inhibition at 5 µM at Aβ40 (setting [2]) was found to be 70%. At Aβ40 (compound 10 μM), the inhibition at 10 µM turned out to be 75%.
In the case of `CC(=O)N1CCC=C(c2cc(N3CC(CN4CCCC4)C3)c3nonc3c2)C1` [compound 1521], the IC50 in assay [1] worked out at 30.1 µM. Further, the inhibition at 10 µM at Aβ40 (compound 10 μM) turned out to be 20%.
The like results for `OC(c1ccccc1-c1cc(N2CC(CN3CCOCC3)C2)c2nonc2c1)C(F)(F)F` (stereo not shown) [compound 1471] were, in that order, 4.4 µM and 29%.
The like results for `c1cc(-c2cc(N3CC(CN4CCCC4)C3)c3nonc3c2)ccn1` [compound 1528] were, in that order, 7.8 µM and 50%.
On to `CS(=O)(=O)N1CC=C(c2cc(N3CC(CN4CCCC4)C3)c3nonc3c2)CC1` [compound 1518], for which the IC50 in assay [1] is over 20 µM. In addition, on Aβ40 (compound 10 μM), the inhibition at 10 µM was determined as 35%.
For `c1n[nH]cc1-c1cc(N2CC(CN3CCCC3)C2)c2nonc2c1` [compound 1526], in that order: 5.8 µM and 60%.
The like results for `COc1cccc(-c2cc(N3CC(CN4CCCC4)C3)c3nonc3c2)c1OC` [compound 1500] were, in that order, over 20 µM and 51%.
The like results for `OC(c1ccc(-c2cc(N3CCC(N4CCCC4)CC3)c3nonc3c2)s1)C(F)(F)F` (stereo not shown) [compound 1464] were, in that order, over 20 µM and 35%.
Regarding `O=C(C1CN(c2cc(-c3cccc(C(O)C(F)(F)F)c3)cc3nonc23)C1)N1CCCC1` (stereo not shown) [compound 1498], the IC50 in assay [1] was found to be 10.8 µM. Moreover, the inhibition at 10 µM on Aβ40 (compound 10 μM) was 48%.
For the compound `OC(c1ccccc1-c1cc(N2CCC(N3CCCC3)CC2)c2nonc2c1)C(F)(F)F` (stereo not shown) [compound 1467], in assay [1], the concentration for half-maximal inhibition (IC50) came out at 5.1 µM. Moreover, the inhibition at 5 µM at Aβ40 (setting [2]) was found to be 28%. In addition, the inhibition at 10 µM on Aβ40 (compound 10 μM) was determined as 43%.
In the case of `c1cc(-c2cc(N3CC(CN4CCCC4)C3)c3nonc3c2)n[nH]1` [compound 1525], the IC50 in assay [1] stood at 13.2 µM. Also, the inhibition at 10 µM at Aβ40 (compound 10 μM) was 63%.
For `Cn1cc(-c2cc(N3CC(CN4CCCC4)C3)c3nonc3c2)cn1` [compound 1527], in that order: 7.5 µM and 49%.
For `OCc1ccccc1-c1cc(N2CC(CN3CCCC3)C2)c2nonc2c1` [compound 1499], in that order: 23.3 µM and 34%.
The like results for `CS(=O)(=O)c1cccc(-c2cc(N3CC(CN4CCCC4)C3)c3nonc3c2)c1` [compound 1479] were, in that order, 7.94 µM and 24%.
On to `CN(C)CCCN(C)c1cc(-c2cccc(C(O)C(F)(F)F)c2)cc2nonc12` (stereo not shown) [compound 1465], for which the concentration for half-maximal inhibition (IC50) in assay [1] is over 20 µM. Also, the inhibition at 5 µM on Aβ40 (setting [2]) came to 44%.
Regarding `Cc1cc(C)cc(-c2cc(N3CC(CN4CCCC4)C3)c3nonc3c2)c1` [compound 1506], the half-maximal inhibitory concentration (IC50) in assay [1] worked out at 4.44 µM. Further, the inhibition at 10 µM on Aβ40 (compound 10 μM) is 44%.
With `O=C(C1CN(c2cc(Br)cc3nonc23)C1)N1CCCC1` [compound 1497], the IC50 in assay [1] was over 20 µM. At Aβ40 (compound 10 μM), the inhibition at 10 µM stood at 65%.
The like results for `CC(=O)c1ccc(-c2cc(N3CC(CN4CCCC4)C3)c3nonc3c2)cc1` [compound 1512] were, in that order, 12 µM and 77%.
For `OC(c1ccccc1-c1cc(N2CC(CN3CCCC3)C2)c2nonc2c1)C(F)(F)F` (stereo not shown) [compound 1474], in that order: 3.1 µM and 77%.
For `CC(C)(C)c1ccc(-c2cc(N3CC(CN4CCCC4)C3)c3nonc3c2)cc1` [compound 1487], in that order: 0.62 µM and 33%.
`CS(=O)(=O)N1C=C(c2cc(N3CC(CN4CCCC4)C3)c3nonc3c2)CCC1` [compound 1533]: the 50% inhibitory concentration (IC50) in assay [1] is 5.6 µM. Also, the inhibition at 10 µM at Aβ40 (compound 10 μM) was 35%.
The like results for `CSc1ccccc1-c1cc(N2CC(CN3CCCC3)C2)c2nonc2c1` [compound 1532] were, in that order, 27.1 µM and 68%.
The like results for `CC(=O)Nc1ccc(-c2cc(N3CC(CN4CCCC4)C3)c3nonc3c2)cc1` [compound 1482] were, in that order, 5.52 µM and 41%.
For `COc1ccc(-c2cc(N3CC(CN4CCCC4)C3)c3nonc3c2)cc1C` [compound 1488], in that order: 8.69 µM and 31%.
In the case of `O=C(NC1CC1)c1cc(N2CC(CN3CCCC3)C2)c2nonc2c1` [compound 1541], the 50% inhibitory concentration (IC50) in assay [1] was 4 µM. Besides, on Aβ40 (setting [2]), the inhibition at 5 µM was 19%. At Aβ40 (compound 10 μM), the inhibition at 10 µM is 31%.
On to `CS(=O)(=O)c1ccccc1-c1cc(N2CC(CN3CCCC3)C2)c2nonc2c1` [compound 1481], for which the concentration for half-maximal inhibition (IC50) in assay [1] was 6.14 µM. For the same compound, at Aβ40 (compound 10 μM), the inhibition at 10 µM came to 11%.
The like results for `c1ccc(-c2cc(N3CC(CN4CCCC4)C3)c3nonc3c2)cc1` [compound 1486] were, in that order, 19.7 µM and 32%.
The like results for `Clc1cc(Cl)cc(-c2cc(N3CC(CN4CCCC4)C3)c3nonc3c2)c1` [compound 1478] were, in that order, 1.82 µM and 63%.
In the case of `c1cc(-c2cc(N3CC(CN4CCCC4)C3)c3nonc3c2)cs1` [compound 1509], the 50% inhibitory concentration (IC50) in assay [1] was over 20 µM. In addition, the inhibition at 10 µM at Aβ40 (compound 10 μM) turned out to be 71%.
For `CS(=O)(=O)N1CCC=C(c2cc(N3CC(CN4CCCC4)C3)c3nonc3c2)C1` [compound 1522], in that order: 10.1 µM and 44%.
The like results for `CS(=O)(=O)c1ccc(-c2cc(N3CC(CN4CCCC4)C3)c3nonc3c2)cc1` [compound 1501] were, in that order, over 20 µM and 48%.
For `FC(F)(F)c1ccccc1-c1cc(N2CC(CN3CCCC3)C2)c2nonc2c1` [compound 1514], in that order: 11.2 µM and 57%.
In the case of `COCCN1CC=C(c2cc(N3CC(CN4CCCC4)C3)c3nonc3c2)CC1` [compound 1519], the IC50 in assay [1] was determined as 8.2 µM. Further, the inhibition at 10 µM on Aβ40 (compound 10 μM) was determined as 53%.
For `COCCN1CCC=C(c2cc(N3CC(CN4CCCC4)C3)c3nonc3c2)C1` [compound 1523], in that order: 1.3 µM and 55%.
The like results for `CCCc1ccc(-c2cc(N3CC(CN4CCCC4)C3)c3nonc3c2)cc1` [compound 1507] were, in that order, 2.46 µM and 83%.
As for `OC(c1cc(-c2cc(N3CC(CN4CCCC4)C3)c3nonc3c2)cs1)C(F)(F)F` (stereo not shown) [compound 1535], the concentration for half-maximal inhibition (IC50) in assay [1] was 2.9 µM. At Aβ40 (setting [2]), the inhibition at 5 µM turned out to be 71%. Moreover, the inhibition at 10 µM on Aβ40 (compound 10 μM) amounted to 77%.
The like results for `OC(c1ccc(-c2cc(N3CC(CN4CCCC4)C3)c3nonc3c2)s1)C(F)(F)F` (stereo not shown) [compound 1543] were, in that order, 1.1 µM, 63% and 84%.
As for `FC(F)(F)c1cccc(-c2cc(N3CC(CN4CCCC4)C3)c3nonc3c2)c1` [compound 1484], in assay [1], the half-inhibitory concentration (IC50) came out at 6.5 µM. Moreover, on Aβ40 (compound 10 μM), the inhibition at 10 µM was 56%.
Consider `CN1CCC=C(c2cc(N3CC(CN4CCCC4)C3)c3nonc3c2)C1` [compound 1524], for which, in assay [1], the concentration for half-maximal inhibition (IC50) was 14.9 µM. Further, the inhibition at 10 µM at Aβ40 (compound 10 μM) is 61%.
On to `Clc1ccc(-c2cc(N3CC(CN4CCCC4)C3)c3nonc3c2)cn1` [compound 1496], for which the IC50 in assay [1] is 13.5 µM. For the same compound, the inhibition at 10 µM at Aβ40 (compound 10 μM) came out at 41%.
`Cn1nccc1-c1cc(N2CC(CN3CCCC3)C2)c2nonc2c1` [compound 1536]: the concentration for half-maximal inhibition (IC50) in assay [1] was 4.2 µM. Also, the inhibition at 5 µM at Aβ40 (setting [2]) worked out at 43%. For the same compound, at Aβ40 (compound 10 μM), the inhibition at 10 µM worked out at 61%.

These data come from patent publication US9938249B2, “Anti-amyloid compounds containing benzofurazan” (Treventis Corporation, priority 2014, dated 2018).
